Data reported in ChEMBL document CHEMBL5465560, “Selectivity Literature for EUbOPEN Chemogenomic Library” (2024).
Blank lines part the entries; values can stand above or below the compound they belong to.

Key:
[1] = biological target: Calcium/calmodulin-dependent protein kinase type 1B (Homo sapiens) (UniProt Q6P2M8); assay: Selectivity interaction (KinomeScan (DiscoverX)) EUB0001049a PNCK; settings: at 1 µM
[2] = biological target: T1, Scaffold protein ILK (Homo sapiens) (UniProt Q13418); assay: Selectivity interaction (ActivX KiNativ screen (kinase selectivity in THP-1 cell lysates)) EUB0000639a ILK; format: subcellular; settings: lysate, at 0.01 µM
T1 sequence (whole entry): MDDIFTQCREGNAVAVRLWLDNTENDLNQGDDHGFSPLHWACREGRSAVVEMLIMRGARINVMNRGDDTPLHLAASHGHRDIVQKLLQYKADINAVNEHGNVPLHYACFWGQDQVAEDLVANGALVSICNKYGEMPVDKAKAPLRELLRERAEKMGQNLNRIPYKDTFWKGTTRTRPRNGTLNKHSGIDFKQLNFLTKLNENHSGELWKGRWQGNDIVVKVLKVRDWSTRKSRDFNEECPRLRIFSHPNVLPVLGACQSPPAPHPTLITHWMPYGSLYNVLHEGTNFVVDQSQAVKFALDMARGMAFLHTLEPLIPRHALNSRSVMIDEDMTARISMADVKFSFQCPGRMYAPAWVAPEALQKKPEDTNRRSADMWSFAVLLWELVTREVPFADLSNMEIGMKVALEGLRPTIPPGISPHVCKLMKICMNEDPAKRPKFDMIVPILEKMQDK

[3] = biological target: T2, Bone morphogenetic protein receptor type-2 (Homo sapiens) (UniProt Q13873); assay: Selectivity interaction (KinomeScan (DiscoverX)) EUB0000229b BMPR2; settings: at 10 µM
T2 sequence (whole entry): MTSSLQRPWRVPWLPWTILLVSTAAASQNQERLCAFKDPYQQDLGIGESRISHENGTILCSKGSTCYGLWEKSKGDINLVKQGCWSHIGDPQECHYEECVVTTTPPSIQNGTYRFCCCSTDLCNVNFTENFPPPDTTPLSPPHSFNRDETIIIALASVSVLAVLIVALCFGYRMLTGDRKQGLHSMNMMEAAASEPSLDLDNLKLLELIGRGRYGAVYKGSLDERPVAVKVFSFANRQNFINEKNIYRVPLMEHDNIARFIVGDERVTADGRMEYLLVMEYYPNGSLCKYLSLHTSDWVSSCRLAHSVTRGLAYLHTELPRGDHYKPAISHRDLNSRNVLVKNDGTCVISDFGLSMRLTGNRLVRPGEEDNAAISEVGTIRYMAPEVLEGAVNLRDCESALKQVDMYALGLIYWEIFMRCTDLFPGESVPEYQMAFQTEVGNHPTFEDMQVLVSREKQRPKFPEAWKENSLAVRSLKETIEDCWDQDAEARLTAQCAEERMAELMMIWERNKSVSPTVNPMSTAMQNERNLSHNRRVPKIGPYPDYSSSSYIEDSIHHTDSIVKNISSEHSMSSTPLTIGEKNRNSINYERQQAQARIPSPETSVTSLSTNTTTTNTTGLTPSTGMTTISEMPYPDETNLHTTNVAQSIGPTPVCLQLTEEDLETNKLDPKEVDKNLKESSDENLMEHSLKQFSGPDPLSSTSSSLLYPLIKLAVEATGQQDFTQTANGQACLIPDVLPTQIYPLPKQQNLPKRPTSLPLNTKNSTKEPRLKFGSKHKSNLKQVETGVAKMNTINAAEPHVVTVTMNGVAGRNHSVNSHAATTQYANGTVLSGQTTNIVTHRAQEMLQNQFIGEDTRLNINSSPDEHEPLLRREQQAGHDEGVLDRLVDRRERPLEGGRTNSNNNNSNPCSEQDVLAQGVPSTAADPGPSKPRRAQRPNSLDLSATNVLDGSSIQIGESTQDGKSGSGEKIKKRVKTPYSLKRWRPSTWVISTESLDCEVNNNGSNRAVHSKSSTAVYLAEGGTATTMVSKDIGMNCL

[4] = biological target: T3, Mitogen-activated protein kinase kinase kinase 5 (Homo sapiens) (UniProt Q99683); assay: Selectivity interaction (KinomeScan (DiscoverX)) EUB0000045b MAP3K5
T3 sequence (whole entry): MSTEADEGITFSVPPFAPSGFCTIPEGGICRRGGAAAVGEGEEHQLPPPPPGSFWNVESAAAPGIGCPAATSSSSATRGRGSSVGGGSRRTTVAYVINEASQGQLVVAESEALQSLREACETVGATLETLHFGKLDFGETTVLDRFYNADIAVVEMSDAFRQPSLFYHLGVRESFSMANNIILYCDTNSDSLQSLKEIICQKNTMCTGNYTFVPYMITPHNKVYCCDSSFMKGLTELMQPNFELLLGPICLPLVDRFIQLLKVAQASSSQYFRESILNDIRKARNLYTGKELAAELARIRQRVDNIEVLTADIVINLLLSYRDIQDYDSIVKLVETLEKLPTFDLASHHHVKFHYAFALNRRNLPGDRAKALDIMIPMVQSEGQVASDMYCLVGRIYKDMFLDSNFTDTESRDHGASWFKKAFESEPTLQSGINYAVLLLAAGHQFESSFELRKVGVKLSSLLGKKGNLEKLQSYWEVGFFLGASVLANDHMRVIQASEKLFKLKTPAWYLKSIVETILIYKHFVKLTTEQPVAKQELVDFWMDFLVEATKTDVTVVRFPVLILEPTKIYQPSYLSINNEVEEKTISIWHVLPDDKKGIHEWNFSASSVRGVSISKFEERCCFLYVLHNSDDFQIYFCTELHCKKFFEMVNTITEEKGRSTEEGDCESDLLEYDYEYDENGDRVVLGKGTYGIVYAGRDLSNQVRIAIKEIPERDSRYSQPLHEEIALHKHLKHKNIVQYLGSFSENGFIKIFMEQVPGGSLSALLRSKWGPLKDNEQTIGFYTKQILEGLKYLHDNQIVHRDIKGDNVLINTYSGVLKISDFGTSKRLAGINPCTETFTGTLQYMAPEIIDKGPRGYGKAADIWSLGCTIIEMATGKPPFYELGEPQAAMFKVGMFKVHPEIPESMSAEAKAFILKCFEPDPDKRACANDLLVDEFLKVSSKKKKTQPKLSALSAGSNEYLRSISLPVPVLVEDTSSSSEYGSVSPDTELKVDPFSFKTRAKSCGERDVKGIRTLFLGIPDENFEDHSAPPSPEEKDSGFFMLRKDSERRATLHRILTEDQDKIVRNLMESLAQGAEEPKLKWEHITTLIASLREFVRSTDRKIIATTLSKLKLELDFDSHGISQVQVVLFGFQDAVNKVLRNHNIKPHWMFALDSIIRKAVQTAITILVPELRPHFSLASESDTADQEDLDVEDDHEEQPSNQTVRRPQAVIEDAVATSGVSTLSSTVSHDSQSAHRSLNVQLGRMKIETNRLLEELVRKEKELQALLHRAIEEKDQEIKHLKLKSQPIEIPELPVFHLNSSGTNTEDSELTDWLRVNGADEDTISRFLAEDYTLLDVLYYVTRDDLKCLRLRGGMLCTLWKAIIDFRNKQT

Chain of Calcium/calmodulin-dependent protein kinase type 1B (Homo sapiens) (Q6P2M8 whole entry): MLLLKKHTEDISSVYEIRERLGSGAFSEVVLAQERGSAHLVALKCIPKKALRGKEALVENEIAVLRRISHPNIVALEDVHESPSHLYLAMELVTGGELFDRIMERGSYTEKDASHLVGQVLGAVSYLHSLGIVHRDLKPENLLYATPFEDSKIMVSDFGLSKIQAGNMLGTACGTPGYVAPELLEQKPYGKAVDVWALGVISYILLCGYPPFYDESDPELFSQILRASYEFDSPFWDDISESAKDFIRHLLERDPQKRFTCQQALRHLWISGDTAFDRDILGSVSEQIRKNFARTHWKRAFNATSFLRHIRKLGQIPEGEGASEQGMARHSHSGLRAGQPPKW

Structure (SMILES): COc1cc(Nc2nc(C)cc(-c3cnn4nc(OC)ccc34)n2)cc(C(F)(F)F)c1
% of control [1]: 100%

% of inhibition [2]: 3.1%
Structure (SMILES): CC[C@@H]1[C@H](F)C(=O)N[C@@H]1COc1nccc2cc(C(N)=O)c(OC)cc12 [ZIMLOVISERTIB]

Structure (SMILES): COc1cc(N(C)c2ccnc3ccc(C(F)(F)F)cc23)cc(OC)c1OC
% binding [3]: 94%

Structure (SMILES): C=CC(=O)Nc1cc(-n2c(=O)ccc3cnc4ccc(-c5ccc(NS(C)(=O)=O)cc5)cc4c32)ccc1C
% of control ([4]; at 1 µM): 100% | % of control ([4]; at 10 µM): 100%
